According to article PMC11984419, “Differential senolytic inhibition of normal versus Aβ-associated cholinesterases: implications in aging and Alzheimer’s disease” (Aging (Albany NY), 2025):
Counter-ions that a name gives are not always drawn. Like-named read-outs stand apart in the source and are kept apart here.

Assays:
[1] = biological target: T1, AChE associated with β-amyloid plaques (Homo sapiens, UniProt P22303); experiment: Karnovsky-Roots histochemical staining, AChE associated with plaques (pH 6.8); type: biochemical; conditions: for Inhibition of AChE staining associated with plaques (in words): pH 6.8, compared with control staining; for Inhibition of staining, AChE pH 6.8: plaques, AD orbitofrontal cortex, average ranking of four AD cases, compound 0.25-1.3 mM in KR solution
T1 construct: post-mortem brain tissues from sex- and age-matched AD cases; tissue Maritime Brain Tissue Bank, Dalhousie University; host or cells: post-mortem human AD brain: orbitofrontal cortex (plaques, pH 6.8) and thalamus (normal neural elements, pH 8.0)
Method: (§1) Histochemical staining for AChE and BChE activity in brain tissues was done using a modified Karnovsky-Roots (KR) method. Tissue sections were first rinsed for 30 min in 0.1 M PB, followed by 30 min in 0.1 M PB with […] hydrogen peroxide (H2O2) and then rinsed for 30 min with 0.1 M maleate buffer (MB; pH 6.8 or […]) prior to incubation in the KR solution. Sections stained for AChE were incubated in the KR solution for 1.75 hr, while sections stained for BChE were incubated for 2.5 hr. The KR staining solution contained 0.5 mM sodium citrate, 0.47 mM cupric sulfate, and 0.05 mM of potassium ferricyanide, a thioester ChE substrate and ChE inhibitor in MB at pH 6.8 to stain for ChEs associated with AD pathology or pH 8.0 to stain for ChEs associated with normal neural elements. For AChE staining, ATChI (0.4 mM) was used as the substrate and ethopropazine (0.06 mM) was used to inhibit BChE. For BChE staining, BTChI (0.8 mM) was used as the substrate and BW 284c51 (0.01 mM) was used to inhibit AChE. Following incubation in KR, sections were rinsed in distilled water (dH2O) for 30 min, incubated in a 0.1% cobalt chloride solution in dH2O for 10 min, and rinsed again in dH20 for 30 min. Sections were incubated in 1.39 mM 3,3’-diaminobenzidine tetrahydrochloride (DAB) in PB (pH 7.4) for 5 min and then developed using 50 μL of 0.3% H2O2 per mL of DAB solution. The reaction was stopped by a 30 min rinse in 0.01 M acetate buffer (pH 3.3). Stained sections were mounted on glass slides, cover-slipped and examined with brightfield microscopy.
(§2) To evaluate the interactions of senolytic and nootropic compounds with ChEs in brain tissues, the above histochemical technique was used with minor variations to the KR incubation. Senolytic and nootropic compounds were dissolved in 50% aqueous acetonitrile to make a stock solution. […] Following incubation for AChE (1.75 hr) and BChE (2.5 hr) in the KR solution, staining was completed as described above.
(§3) Positive controls included staining for BChE and AChE activity at pH 6.8 and pH 8.0 without any additions. Negative controls were utilized to validate staining specificity of BChE and AChE at pH 6.8 and pH 8.0, where the substrates (BTChI and ATChI, respectively) were omitted, as previously described. […] Briefly, 50% aqueous acetonitrile was added to the KR solution, without any senolytic or nootropic compound, while maintaining the same volume as the compound additives.
(§4) A qualitative method was used to evaluate the effect of senolytic and nootropic compounds on ChE histochemical staining, as done previously. Inhibition of staining intensity was categorized as follows: No reduction (-), slight (x), moderate (xx), or strong (xxx). Tissue sections were analyzed using brightfield microscopy on an Olympus BX50F microscope (Olympus Optical Co., Ltd., Tokyo, Japan). Photomicrographs of the stained tissue sections were taken using a Zeiss Axio Scan.Z1 slide scanner with Zen 3.1 Blue Edition software (Carl Zeiss Canada Ltd., Toronto, Ontario, Canada). Figures were assembled using Adobe Photoshop (CS 5, Version 12.0, San Diego, CA, USA). The brightness of each individual image was adjusted to ensure backgrounds matched for analysis.

[2] = biological target: T2, recombinant human AChE (Homo sapiens, UniProt P22303); experiment: Enzyme kinetic study (Ellman's assay, Lineweaver-Burk) with AChE; type: biochemical; conditions: for AChE mode of inhibition: from Lineweaver-Burk plots
T2 construct: purchased MilliporeSigma Canada Ltd. (Oakville, Ontario, Canada)
Method: (§5) Enzyme kinetic studies were performed as previously described, using Ellman’s assay. Briefly, in a quartz cuvette (1 cm pathlength), a 0.577 mM DTNB solution in 0.1 M potassium phosphate buffer (1.6 mL, pH 7.0) was combined at room temperature with either recombinant AChE (0.1 mL, 3.7 nM) in 0.005% aqueous gelatin or purified human serum BChE (0.1 mL, 5.85 nM) in 0.005% aqueous gelatin and mixed with a senolytic or nootropic compound (Figure 1) dissolved in 50% (v/v) aqueous acetonitrile (0.05 mL). […] Substrate concentrations were kept constant while the senolytic concentrations varied (0-140 μM). Changes in absorbance (ΔA/min), reflecting the rate of ATChI or BTChI hydrolysis with their respective enzymes, were recorded spectrophotometrically every 5 seconds for 1 minute.
(§6) As done previously, Lineweaver-Burk plots were generated for each senolytic and nootropic compound with the velocity (v) of each reaction determined using Beer’s Law, where v = (ΔA/min)/(εl), ε is the molar extinction coefficient for 5-thio-2-nitrobenzoic acid (TNB) (13600 M^−1 cm^−1), and l is the cuvette pathlength (1 cm). Replotting the calculated slopes from each double reciprocal plot against senolytic and nootropic concentrations, gave the inhibitor constant (Ki, M) as the x-intercept. The mode of inhibition (competitive, non-competitive, mixed non-competitive, or uncompetitive) was also determined by analyzing the relational pattern of linear regressions for varying concentrations of the same senolytic or nootropic compound. Enzyme kinetic experiments were performed in triplicate and kinetic parameter values were averaged.

[3] = biological target: T3, BChE associated with normal neural elements (Homo sapiens, UniProt P06276); experiment: Karnovsky-Roots histochemical staining, BChE associated with normal neural elements (pH 8.0); type: biochemical; conditions: for Inhibition of staining, BChE pH 8.0: normal neural elements, AD thalamus, average ranking of four AD cases, compound 0.25-1.3 mM in KR solution; for Inhibition of BChE staining associated with normal neural elements (in words): pH 8.0, relative to controls
T3 construct: post-mortem brain tissues from sex- and age-matched AD cases; tissue Maritime Brain Tissue Bank, Dalhousie University; host or cells: post-mortem human AD brain: orbitofrontal cortex (plaques, pH 6.8) and thalamus (normal neural elements, pH 8.0)
Method: as §1, §2, §3, §4

[4] = biological target: T4, BChE purified from human plasma (Homo sapiens, UniProt P06276); experiment: Enzyme kinetic study (Ellman's assay, Lineweaver-Burk) with BChE; type: biochemical; conditions: for BChE mode of inhibition: from Lineweaver-Burk plots
T4 construct: BChE purified from human plasma was a gift from Dr. Oksana Lockridge; tissue gift from Dr. Oksana Lockridge (Eppley Institute, University of Nebraska Medical Center); host or cells: human plasma
Method: as §5, §6

[5] = biological target: T5, AChE associated with normal neural elements (Homo sapiens, UniProt P22303); experiment: Karnovsky-Roots histochemical staining, AChE associated with normal neural elements (pH 8.0); type: biochemical; conditions: for Inhibition of staining, AChE pH 8.0: normal neural elements, AD thalamus, average ranking of four AD cases, compound 0.25-1.3 mM in KR solution; for Inhibition of AChE staining associated with normal neural elements (in words): pH 8.0, relative to controls
T5 construct: post-mortem brain tissues from sex- and age-matched AD cases; tissue Maritime Brain Tissue Bank, Dalhousie University; host or cells: post-mortem human AD brain: orbitofrontal cortex (plaques, pH 6.8) and thalamus (normal neural elements, pH 8.0)
Method: as §1, §2, §3, §4

[6] = biological target: T6, BChE associated with β-amyloid plaques (Homo sapiens, UniProt P06276); experiment: Karnovsky-Roots histochemical staining, BChE associated with plaques (pH 6.8); type: biochemical; conditions: for Inhibition of BChE staining associated with plaques (in words): pH 6.8, compared with control staining; for Inhibition of staining, BChE pH 6.8: plaques, AD orbitofrontal cortex, average ranking of four AD cases, compound 0.25-1.3 mM in KR solution
T6 construct: post-mortem brain tissues from sex- and age-matched AD cases; tissue Maritime Brain Tissue Bank, Dalhousie University; host or cells: post-mortem human AD brain: orbitofrontal cortex (plaques, pH 6.8) and thalamus (normal neural elements, pH 8.0)
Method: as §1, §2, §3, §4

[7] = biological target: BChE; conditions: read-out: Literature BChE Ki values, cited from earlier work
[8] = biological target: AChE; conditions: ref Katalinić et al. [60]; read-out: Literature AChE Ki values; cited from earlier work
[9] = tested on: ChE associated with plaques; conditions: ref [37]; cited from earlier work
[10] = tested on: ChE associated with normal neural elements; conditions: ref [37]; cited from earlier work
[11] = purified human serum BChE, BTChI substrate, pH 7.0, triplicate

T5 sequence (P22303 32-614): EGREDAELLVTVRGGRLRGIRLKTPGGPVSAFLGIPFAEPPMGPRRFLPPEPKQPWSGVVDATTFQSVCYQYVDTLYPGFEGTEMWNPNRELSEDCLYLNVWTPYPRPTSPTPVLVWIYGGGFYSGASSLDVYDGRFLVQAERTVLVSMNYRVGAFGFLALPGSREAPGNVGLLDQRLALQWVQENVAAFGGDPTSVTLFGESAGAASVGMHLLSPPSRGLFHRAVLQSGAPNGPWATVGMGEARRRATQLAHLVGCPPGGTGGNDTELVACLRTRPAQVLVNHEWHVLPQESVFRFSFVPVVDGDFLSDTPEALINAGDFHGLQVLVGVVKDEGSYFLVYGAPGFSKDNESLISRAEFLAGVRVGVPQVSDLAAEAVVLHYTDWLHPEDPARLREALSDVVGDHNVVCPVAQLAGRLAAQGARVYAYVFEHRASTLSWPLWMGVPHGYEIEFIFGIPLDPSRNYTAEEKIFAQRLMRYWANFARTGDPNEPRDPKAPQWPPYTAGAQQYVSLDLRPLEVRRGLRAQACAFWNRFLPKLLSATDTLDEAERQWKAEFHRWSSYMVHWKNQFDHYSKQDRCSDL
T2 sequence (P22303 32-614): as above
T1 sequence (P22303 32-614): as above
T4 sequence (P06276 29-602): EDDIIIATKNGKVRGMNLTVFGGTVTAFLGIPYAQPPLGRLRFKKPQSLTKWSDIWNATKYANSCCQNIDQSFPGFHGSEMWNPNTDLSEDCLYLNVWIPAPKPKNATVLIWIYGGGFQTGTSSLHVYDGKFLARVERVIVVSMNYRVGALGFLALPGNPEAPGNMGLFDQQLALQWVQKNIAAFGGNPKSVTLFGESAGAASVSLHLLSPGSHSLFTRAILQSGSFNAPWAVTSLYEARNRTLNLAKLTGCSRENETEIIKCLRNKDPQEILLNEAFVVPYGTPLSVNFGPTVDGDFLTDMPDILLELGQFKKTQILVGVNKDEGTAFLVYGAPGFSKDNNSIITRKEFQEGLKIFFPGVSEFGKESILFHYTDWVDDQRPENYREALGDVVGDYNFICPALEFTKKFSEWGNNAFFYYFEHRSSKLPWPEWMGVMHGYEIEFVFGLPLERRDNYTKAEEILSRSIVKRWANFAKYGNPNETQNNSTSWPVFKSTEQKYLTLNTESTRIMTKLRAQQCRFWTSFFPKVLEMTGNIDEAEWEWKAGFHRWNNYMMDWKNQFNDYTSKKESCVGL
T6 sequence (P06276 29-602): as above
T3 sequence (P06276 29-602): as above

Structure (SMILES) | Inhibition of AChE staining associated with plaques (in words) [1] | Inhibition of staining, AChE pH 6.8 [1] | Ki [2] | AChE mode of inhibition [2] | Inhibition of staining, BChE pH 8.0 [3] | Inhibition of BChE staining associated with normal neural elements (in words) [3] | Inhibition of staining, AChE pH 8.0 [5] | Inhibition of AChE staining associated with normal neural elements (in words) [5] | Inhibition of BChE staining associated with plaques (in words) [6] | Inhibition of staining, BChE pH 6.8 [6] | BChE mode of inhibition [4] | other results
COc1ccc(COc2ccc(Cc3cnc(N)nc3N)cc2OC)cc1 [GW2580 (5), GW2580] | did not inhibit | - (– (no inhibition)) | 71 µM | (Mixed Non-competitive) | - (– (no inhibition)) | did not inhibit | - (– (no inhibition)) | did not inhibit | did inhibit | x/xx | – | Experimental BChE Ki [4, 11]: No Inhibition; Experimental BChE Ki ([4]; purified human serum BChE, BTChI substrate, pH 7.0, triplicate, listed as 5): did not inhibit
O=c1c(O)c(-c2ccc(O)c(O)c2)oc2cc(O)cc(O)c12 [Quercetin (4), quercetin] | – | – | 62.2 µM | (Mixed Non-competitive) | – | – | – | – | – | – | (Mixed Non-competitive) | Ki ([7]; ref Katalinić et al. [60]): 68 µM; Ki ([7]; ref Orhan et al. [87]): 46.8 µM
Cc1nc(Nc2ncc(C(=O)Nc3c(C)cccc3Cl)s2)cc(N2CCN(CCO)CC2)n1 [Dasatinib (1), dasatinib] | reduced by varying degrees | xx/x^a | 28.2 µM | (Mixed Non-competitive) | - (– (no inhibition)) | no inhibition | - (– (no inhibition)) | no inhibition | complete inhibition | xxx (xxx (strong inhibition)) | (Mixed Non-competitive) | –
CN(C)CCOC(=O)COc1ccc(Cl)cc1 [Meclofenoxate Hydrochloride (6), meclofenoxate hydrochloride] | moderate to strong inhibition | – | 63.2 µM | (Mixed Non-competitive) | - (– (no inhibition)) | did not inhibit | - (– (no inhibition)) | did not inhibit | slight inhibition | – | (Mixed Non-competitive) | –
O=c1c(O)c(-c2ccc(O)c(O)c2)oc2cc(O)ccc12 [Fisetin (3), fisetin] | – | – | – | competitive inhibition | – | – | – | – | – | – | uncompetitive inhibition | Ki ([7]; ref Katalinić et al. [60]): 94.2 µM; Ki ([2]; recombinant human AChE, ATChI substrate, pH 7.0, triplicate, read-out: Experimental AChE Ki): 110 µM; Ki [8]: 100 µM; Ki ([4]; purified human serum BChE, BTChI substrate, pH 7.0, triplicate, read-out: Experimental BChE Ki): 94.4 µM
COC(=O)c1ccc2c(c1)NC(=O)/C2=C(\Nc1ccc(N(C)C(=O)CN2CCN(C)CC2)cc1)c1ccccc1 [Nintedanib (2), nintedanib] | complete inhibition | xxx (xxx (strong inhibition)) | 7.1 µM | (Mixed Non-competitive) | - (– (no inhibition)) | no inhibition | - (– (no inhibition)) | no inhibition | complete inhibition | xxx (xxx (strong inhibition)) | – | Experimental BChE Ki [4, 11]: No Inhibition; Experimental BChE Ki ([4]; purified human serum BChE, BTChI substrate, pH 7.0, triplicate, listed as 2): did not inhibit
COc1ccc2c3c1O[C@H]1C[C@@H](O)C=C[C@@]31CCN(C)C2 [galantamine] | – | – | – | – | – | – | – | – | – | – | – | Inhibition of ChE staining associated with plaques [9]: inhibits; Inhibition of ChE staining associated with normal neural elements [10]: inhibits
